In data set [1] the target is T1, full-length human Mineralocorticoid Receptor (MR) (Homo sapiens, UniProt P08235).
T1 construct: host or cells: PathHunter CHO-K1 MR cells
T1 sequence (P08235 1-984): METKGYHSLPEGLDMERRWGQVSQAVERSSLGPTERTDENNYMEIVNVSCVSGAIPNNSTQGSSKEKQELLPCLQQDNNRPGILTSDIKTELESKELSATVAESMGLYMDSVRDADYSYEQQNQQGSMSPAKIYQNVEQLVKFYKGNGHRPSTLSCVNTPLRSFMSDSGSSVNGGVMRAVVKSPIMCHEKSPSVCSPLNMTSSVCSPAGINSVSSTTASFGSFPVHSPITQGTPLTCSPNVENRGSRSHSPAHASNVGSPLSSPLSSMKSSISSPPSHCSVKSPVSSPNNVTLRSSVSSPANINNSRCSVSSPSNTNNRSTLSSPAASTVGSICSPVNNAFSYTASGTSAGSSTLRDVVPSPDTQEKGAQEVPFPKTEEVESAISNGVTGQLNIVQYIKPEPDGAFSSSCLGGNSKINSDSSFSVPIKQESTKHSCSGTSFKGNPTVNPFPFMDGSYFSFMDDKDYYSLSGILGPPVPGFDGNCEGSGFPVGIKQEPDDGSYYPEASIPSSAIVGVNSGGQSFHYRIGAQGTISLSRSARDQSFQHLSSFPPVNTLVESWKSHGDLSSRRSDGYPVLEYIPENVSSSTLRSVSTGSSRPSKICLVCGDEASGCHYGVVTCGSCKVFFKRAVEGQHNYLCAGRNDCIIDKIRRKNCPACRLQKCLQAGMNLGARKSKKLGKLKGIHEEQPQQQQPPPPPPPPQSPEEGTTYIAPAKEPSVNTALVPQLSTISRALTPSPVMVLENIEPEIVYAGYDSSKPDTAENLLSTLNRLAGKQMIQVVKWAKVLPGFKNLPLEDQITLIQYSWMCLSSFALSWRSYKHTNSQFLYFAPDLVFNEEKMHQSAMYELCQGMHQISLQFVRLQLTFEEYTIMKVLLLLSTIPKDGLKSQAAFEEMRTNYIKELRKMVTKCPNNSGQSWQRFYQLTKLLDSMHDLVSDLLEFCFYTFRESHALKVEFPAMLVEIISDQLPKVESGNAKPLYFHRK
As to the kind of experiment: human MR NH Pro assay (PathHunter Protein:Protein interaction assay), MR antagonism. Particulars: IP = inflection point of the dose-response curve; CHO-K1 cells overexpressing human MR, aldosterone about 0.3 nM to about 1 nM, 6 hours at 37° C. The data set is classed as cell-based. The essentials: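 PathHunter CHO-K1 MR cells (10K/well) plated overnight at 37°C, 5% CO2, then exposed 6 h to a 10-point titration starting at 36.7 μM final, in duplicate, DMSO <1%. MR–coactivator peptide interaction read by luminescence after 1 h with DiscoveRx detection reagent at room temperature.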

The nature of data set [2]: PK profile in rats. The following applies: for bioavailability: oral. The data set is classed as in vivo, rat.
Data set [3] can be described thus: Liver microsome stability, human. The data set is classed as in vitro ADME. A general note: Liver microsomes are a subcellular fraction often used to study metabolism.
The nature of data set [4]: Liver microsome stability, rat. Format: in vitro ADME. Particulars: liver microsomes, read-out: Liver Microsome Stability (t1/2).
Data set [5] can be described thus: Liver microsome stability, dog. Particulars: liver microsomes, read-out: Liver Microsome Stability (t1/2). Format: in vitro ADME.
The nature of data set [6]: Liver microsome stability, rhesus monkey. The data set is classed as in vitro ADME. The following applies: liver microsomes, read-out: Liver Microsome Stability (t1/2).
Data set [7] in a line: Hepatocyte stability, human. The following applies: human, hepatocytes; read-out: Hepatocyte Stability (t1/2). The data set is classed as in vitro ADME.
Data set [8] can be described thus: Hepatocyte stability, rat. Format: in vitro ADME. The following applies: hepatocytes, read-out: Hepatocyte Stability (t1/2).
Data set [9] is described as follows: Hepatocyte stability, dog. The data set is classed as in vitro ADME. The following applies: hepatocytes, read-out: Hepatocyte Stability (t1/2).
A short description of data set [10]: Hepatocyte stability, rhesus monkey. Format: in vitro ADME. The following applies: hepatocytes, read-out: Hepatocyte Stability (t1/2).
Data set [11] is described as follows: Metabolic stability in liver microsome and hepatocytes of multiple animal species (overall statement). Format: in vitro ADME.

Here are results for 2 compounds from patent US9511052B2, “Mineralocorticoid receptor antagonists” (Merck Sharp & Dohme Corp., priority 2012, dated 2016).

A word on the IC50: it is the point on the concentration scale where inhibition reaches its midpoint. A word on the clearance: it is a measure of how efficiently the substance is removed, as volume per time. The bioavailability is dose-corrected exposure relative to a reference, in per cent.

Molecules are shown by their SMILES.

In data set [1], `CS(=O)(=O)Nc1cccc2c1cnn2C(CC(F)F)(C(N)=O)c1ccc(C(F)(F)F)cc1` (single isomer, unassigned) [Compound 46, 4,4-difluoro-2-(4-(methylsulfonamido)-1H-indazol-1-yl)-2-(4-(trifluoromethyl)phenyl)butanamide] showed an IC50 of 76 nM. Besides, the “PK profile in rats (in words)” value in data set [2] is “good PK profile”. For the same compound, in data set [2], the AUCN po was found to be 1.9 µM·kg·h/mg. In [2] (rat, in vivo), the clearance is 6.2 mL/min/kg. Besides, the half-life in data set [2] (rat, in vivo) was 252 min; in data set [3] (human, liver microsomes, read-out: Liver Microsome Stability (t1/2)), 138 min; in [4], 97 min; in data set [5], 135 min; in data set [6], 92 min; in [7], above 90 min. Moreover, the half-life in data set [8], in [9] and in data set [10] was above 90 min in each case. The compound further had a bioavailability in [2] (rat, in vivo) of 31%. Moreover, in [11], the “metabolic stability in liver microsome and hepatocytes of multiple animal species (in words)” value was “good metabolic stability”.

The compound `CCC(c1ccc(C(F)(F)F)cc1)(C(O)C(F)F)n1ncc2c(NS(C)(=O)=O)cccc21` (single isomer, unassigned) [Compound 47, N-(1-(1,1-difluoro-2-hydroxy-3-(4-(trifluoromethyl)phenyl)pentan-3-yl)-1H-indazol-4-yl)methanesulfonamide] gave a half-inhibitory concentration (IC50) in data set [1] of 11 nM. For the same compound, the Cl in data set [2] came out at 3.8 mL/min/kg. Besides, the “PK profile in rats (in words)” value in [2] was “good PK profile”. For the same compound, the t1/2 in [2] came to 9.9 h. Besides, in data set [2], the AUCN po is 8.9 µM·kg·h/mg. Further, the bioavailability in [2] (rat, in vivo) came to 77%. Further, the “Liver Microsome Stability (t1/2)” value in [3] (Human) stood at 62 min. The half-life is 154 min in data set [4]; 162 min in data set [5]; 42 min in data set [6]; above 90 min in data set [7]; above 90 min in [8]; above 90 min in data set [9]. For the same compound, in data set [10], the half-life is above 90 min. Further, the “metabolic stability in liver microsome and hepatocytes of multiple animal species (in words)” value in data set [11] was “good metabolic stability”.
